From patent US20240325351A1, “METHOD OF ADMINISTRATION” (Cybin UK Ltd., priority 2023, published 2024)
Several values for one entry are separate records, joined by “and”; a condition that tells them apart may be missing. Identical values can stand only once.

What was measured:
[1] = tested on: patients with moderate-severe Major Depressive Disorder; assay: MADRS in unblinded study of single IV dose of DMT fumarate (NCT05553691); assay type: in vivo, human; settings: for MADRS score: individual patients; for MADRS score / Remission (MADRS score ≤10) / Response (≥50% reduction in MADRS score from baseline): fumarate
Description: (§1) An unblinded study of a single dose of N,N-dimethyltryptamine [DMT] fumarate in patients currently taking a selective serotonin reuptake inhibitor (SSRI) for their depression, but for whom the SSRI is not fully relieving their depression is ongoing (ClinicalTrials.gov Identifier: NCT05553691). The study comprises two groups:
(§2) “Test Cohort”: Patients who are currently on a stable treatment course of SSRIs, which have been ineffective in fully relieving their depression symptoms (SSRI prescribed outside of study). Patients were administered a single dose of DMT fumarate by intravenous infusion; and
(§3) “Control Cohort”: Patients who are not currently taking any pharmacological treatment for their depression (control group). Patients were administered a single dose of DMT fumarate by intravenous infusion.
(§4) Patients were recruited with moderate-severe Major Depressive Disorder (“MDD”) as defined by a Hamilton Depression Rating Scale (HAM-D) score of ≥14. Efficacy was assessed using the Montgomery-Asberg Depression Rating scale (MADRS) to measure any change in patients' depression symptoms from baseline (Day 0). Additional exploratory endpoints include the Beck Depression Inventory (BDI) to assess patients' self-reported depression, and the State-Trait Anxiety Inventory (STAI-T) to assess patients' self-reported anxiety.
(§5) DMT fumarate is administered by intravenous infusion on Day 1.

[2] = tested on: patients with moderate-severe Major Depressive Disorder; assay: BDI-II (Beck Depression Inventory), same study; assay type: in vivo, human; settings: for BDI-II score: individual patients, fumarate
Description: as §1, §2, §3, §4, §5

[3] = tested on: patients with moderate-severe Major Depressive Disorder; assay: STAI-T (State-Trait Anxiety Inventory), same study; assay type: in vivo, human; settings: for STAI-T score: individual patients, fumarate
Description: as §1, §2, §3, §4, §5

[4] = tested on: patients with moderate-severe Major Depressive Disorder; assay: Safety & Tolerability, same study; assay type: in vivo, human
Description: as §1, §2, §3, §5
The administration of DMT fumarate was well-tolerated by all patients in both the test and the control cohorts, with no apparent differences between cohorts.

[5] = tested on: major depressive disorder; settings: in vivo; cited from earlier work
[6] = 33 mg; cited from earlier work
[7] = Control Cohort, n=5, Day 8 vs Day 0
[8] = Control Cohort, n=5, Day 15 vs Day 0
[9] = Control Cohort, n=5, Day 29 vs Day 0
[10] = Test Cohort (on SSRI), n=12, Day 8
[11] = Test Cohort (on SSRI), n=12, Day 8 vs Day 0
[12] = Test Cohort (on SSRI), n=12, Day 15
[13] = Test Cohort (on SSRI), n=12, Day 15 vs Day 0
[14] = Test Cohort (on SSRI), n=12, Day 29
[15] = Test Cohort (on SSRI), n=12, Day 29 vs Day 0
[16] = Test Cohort (on stable SSRI), Day 15
[17] = Test Cohort (on stable SSRI), Day 29

For CN(C)CCc1c[nH]c2ccccc12.O=C(O)/C=C/C(=O)O [DMT fumarate, N,N-dimethyltryptamine fumarate], the MADRS score ([1]; Control Cohort (no pharmacological treatment), Day 8) was 7 and 21 (2×) and 24 and 9, the MADRS score ([1]; Control Cohort (no pharmacological treatment), Day 15) was 8 and 18 and 21 and 26 and 7 and the MADRS score ([1]; Control Cohort (no pharmacological treatment), Day 29) was 17 and 18 and 15 and 30 and 0. For the same compound, the “MADRS Mean” value ([1]; Control Cohort, n=5, Day 8) was 16.4, the “MADRS Mean % change from Baseline” value [1, 7] was −53.1% and the “MADRS Mean” value ([1]; Control Cohort, n=5, Day 15) was 16.0. For the same compound, the “MADRS Mean % change from Baseline” value [1, 8] was −54.2%, the “MADRS Mean” value ([1]; Control Cohort, n=5, Day 29) was 16.0 and the “Number of participants in remission (MADRS ≤10)” value (from here on “Number of participants”) ([1]; Control Cohort, n=5, Day 29) was “One”. For the same compound, the “Remission (MADRS score ≤10)” value ([1]; Control Cohort, n=5, Day 29) was 20%, the “Response (≥50% reduction in MADRS score from baseline)” value ([1]; Control Cohort, n=5, Day 29) was 80% and the “MADRS Mean % change from Baseline” value [1, 9] was −54.8%. For the same compound, the “MADRS Mean” value [1, 10] was 6.7, the “MADRS Mean % change from Baseline” value [1, 11] was −78.1% and the “MADRS Mean” value [1, 12] was 6.0. The “MADRS Mean % change from Baseline” value [1, 13] was −81.2%, the “MADRS Mean” value [1, 14] was 3.0 and the “Number of participants” value [1, 14] was 11 participants. The “Remission (MADRS score ≤10)” value [1, 14] was 92%, the “Response (≥50% reduction in MADRS score from baseline)” value [1, 14] was 100% and the “MADRS Mean % change from Baseline” value [1, 15] was −90.2%. For the same compound, the “Number of participants” value ([1]; Test Cohort (on SSRI), n=12, all other time points (Day 8, Day 15)) was 10 participants, the MADRS score ([1]; Test Cohort (on stable SSRI), Day 8, single IV infusion Day 1) was 1 (3×) and 0 (2×) and 27 and 21 and 10 and 7 and 2 (2×) and 8 and the MADRS score [1, 16] was 1 and 0 (4×) and 27 and 15 and 8 and 3 and 5 and 4 and 9. For the same compound, the MADRS score [1, 17] was 11 and 0 and 8 and 1 and 6 and 7 and 2, the BDI-II score ([2]; Control Cohort, Day 15) was 20 and 17 (2×) and 22 and 8 and the BDI-II score ([2]; Control Cohort, Day 29) was 12 and 13 and 16 and 31 and 2. For the same compound, the “BDI-II Mean” value ([2]; Control Cohort, n=5, Day 15) was 16.8, the “BDI-II Mean % change from Baseline” value [2, 8] was −54% and the “BDI-II Mean” value ([2]; Control Cohort, n=5, Day 29) was 14.8. For the same compound, the “BDI-II Mean % change from Baseline” value [2, 9] was −59%, the “BDI-II Mean” value [2, 12] was 5.1 and the “BDI-II Mean % change from Baseline” value [2, 13] was −84%. For the same compound, the “BDI-II Mean” value [2, 14] was 3.1, the “BDI-II Mean % change from Baseline” value [2, 15] was −88% and the BDI-II score [2, 16] was 0 (3×) and 3 (2×) and 29 and 6 and 5 (2×) and 1 (2×) and 8. The BDI-II score [2, 17] was 0 (5×) and 4 and 11 and 7 (2×) and 1 and 2 and 5, the STAI-T score ([3]; Control Cohort, Day 8) was 60 and 40 and 44 and 50 and 38 and the STAI-T score ([3]; Control Cohort, Day 15) was 58 and 46 and 39 and 52 and 41. The STAI-T score ([3]; Control Cohort, Day 29) was 51 and 49 and 47 and 59 and 32, the “STAI-T Mean” value ([3]; Control Cohort, n=5, Day 8) was 46.4 and the “STAI-T Mean % change from Baseline” value [3, 7] was −28.9%. For the same compound, the “STAI-T Mean” value ([3]; Control Cohort, n=5, Day 15) was 47.2, the “STAI-T Mean % change from Baseline” value [3, 8] was −27.6% and the “STAI-T Mean” value ([3]; Control Cohort, n=5, Day 29) was 47.6. For the same compound, the “STAI-T Mean % change from Baseline” value [3, 9] was −27.2%, the “STAI-T Mean” value [3, 10] was 39.8 and the “STAI-T Mean % change from Baseline” value [3, 11] was −33.6%. The “STAI-T Mean” value [3, 12] was 37.3, the “STAI-T Mean % change from Baseline” value [3, 13] was −37.5% and the “STAI-T Mean” value [3, 14] was 35.2. The “STAI-T Mean % change from Baseline” value [3, 15] was −41.0%, the STAI-T score ([3]; Test Cohort (on stable SSRI), Day 8) was 47 and 40 (2×) and 66 and 49 and 34 (2×) and 26 and 46 and 28 and 29 and 38 and the STAI-T score [3, 16] was 44 and 30 and 62 and 45 and 33 (2×) and 40 (2×) and 42 and 25 and 22 and 32. The STAI-T score [3, 17] was 45 and 34 (2×) and 41 and 43 and 28 and 40 and 32 (2×) and 44 and 26 and 23, the Tolerability ([4]; all patients in both test and control cohorts, no apparent differences between cohorts) was “well-tolerated” and the “Drug-related serious adverse events” value ([4]; both cohorts) was “No drug-related serious adverse events reported”. For the same compound, the “Resolution of drug-related AEs” value ([4]; both cohorts) was “majority of drug-related AEs were resolved during the dosing visit”, the “Severity of drug-related AEs” value ([4]; both cohorts) was “mild or moderate” and the “Number of drug-related adverse events (AEs)” value ([4]; control cohort) was 3. The “Number of drug-related adverse events (AEs)” value ([4]; test cohort (on SSRI)) was 8.

In the case of CN(C)CCc1c[nH]c2ccccc12 [N,N-dimethyltryptamine, 2-(1H-indol-3-yl)-N,N-dimethylethanamine], the “Durability of antidepressant effect” value [5] is given as “three months or more”.

For CC(C)N(CCc1c[nH]c2cccc(OC(=O)CCCC(=O)O)c12)C(C)C [iprocin-4-glutarate, N,N diisopropyltryptamine-4-glutarate], the “Mean duration of the subjective experience” value [6] is listed as 3.7 h.
